Test results published in patent US8952024B2, “Herbicidal pyrimidone derivatives” (E I du Pont de Nemours and Company, priority 2009, dated 2015).

Experiments:
Format in all cases: in vivo
[1] = tested on: pigweed (Amaranthus retroflexus); test: Test A pre-/postemergence plant response
Procedure, shortened: (§1)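 Pre: directed soil spray on seeded loam/sand blend. Post: same formulation (non-phytotoxic solvent + surfactant) on 2–10 cm plants, 1–2 leaf stage. Greenhouse ~10 d; visual injury score 0–100 vs untreated.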

[2] = tested on: morningglory (Ipomoea spp.); test: Test A pre-/postemergence plant response
Procedure, shortened: as §1

[3] = tested on: umbrella sedge (Cyperus difformis); test: Test B flooded paddy test; conditions: for Plant response rating, Flood, Sedge, Umbrella: 250 g ai/ha, flooded paddy test, visual rating on 0 to 100 scale (0 no effect, 100 complete control) after 13 to 15 days; for Plant response rating, Sedge, Umbrella: Flood (flooded paddy test), 13 to 15 days
Procedure, shortened: (§2)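 Greenhouse-held for 13 to 15 days, treated pots were compared visually with controls and scored 0–100 (0, no effect). Treatment had been made into paddy water kept at 3 cm above the soil, with plants at the 2-leaf stage.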

[4] = tested on: ducksalad (Heteranthera limosa); test: Test B flooded paddy test; conditions: for Plant response rating, Flood, Ducksalad: 250 g ai/ha, flooded paddy test, visual rating on 0 to 100 scale (0 no effect, 100 complete control) after 13 to 15 days; for Plant response rating, Ducksalad: Flood (flooded paddy test), 13 to 15 days
Procedure, shortened: as §2

[5] = tested on: barnyardgrass (Echinochloa crus-galli); test: Test B flooded paddy test; conditions: for Plant response rating, Flood, Barnyardgrass: 250 g ai/ha, flooded paddy test, visual rating on 0 to 100 scale (0 no effect, 100 complete control) after 13 to 15 days; for Plant response rating, Barnyardgrass: Flood (flooded paddy test), 13 to 15 days
Procedure, shortened: as §2

[6] = tested on: rice (Oryza sativa); test: Test B flooded paddy test; conditions: for Plant response rating, Flood, Rice: 250 g ai/ha, flooded paddy test, visual rating on 0 to 100 scale (0 no effect, 100 complete control) after 13 to 15 days; for Plant response rating, Rice: Flood (flooded paddy test), 13 to 15 days
Procedure, shortened: as §2

[7] = tested on: morningglory (Ipomoea coccinea); test: Test B pre-/postemergence plant response
Procedure, shortened: (§3)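 Visually scored on a 0 to 100 scale after 13 to 15 days in greenhouse versus controls. Treatments were preemergence on seeded loam/sand soil and postemergence on 1- to 4-leaf plants.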

[8] = tested on: giant foxtail (Setaria faberii); test: Test B pre-/postemergence plant response
Procedure, shortened: as §3

[9] = tested on: goosegrass (Eleusine indica); test: Test B pre-/postemergence plant response
Procedure, shortened: as §3

[10] = tested on: johnsongrass (Sorghum halepense); test: Test B pre-/postemergence plant response
Procedure, shortened: as §3

[11] = tested on: woolly cupgrass (Eriochloa villosa); test: Test B pre-/postemergence plant response
Procedure, shortened: as §3

[12] = tested on: wheat (Triticum aestivum); test: Test B pre-/postemergence plant response
Procedure, shortened: as §3

[13] = Postemergence, 125 g ai/ha, visual injury, 0 to 100 scale (0 no effect, 100 complete control), approx. ten days
[14] = Postemergence, 500 g ai/ha, 0 to 100 scale, 0 = no effect, 100 = complete control, approx. ten days
[15] = Preemergence, 125 g ai/ha, 0 to 100 scale, 0 = no effect, 100 = complete control
[16] = Preemergence, 500 g ai/ha, visual injury, 0 to 100 scale (0 no effect, 100 complete control), approx. ten days
[17] = 62 g ai/ha, scale of 0 to 100 where 0 is no effect and 100 is complete control
[18] = 250 g ai/ha, Preemergence, 0 to 100 scale
[19] = Postemergence, 62 g ai/ha, scale 0 (no effect) to 100 (complete control), 13 to 15 days
[20] = Postemergence, 125 g ai/ha, visual rating after 13 to 15 days, scale 0 (no effect) to 100 (complete control)
[21] = Preemergence, 31 g ai/ha, scale 0 to 100 (0 no effect, 100 complete control)
[22] = Preemergence, 62 g ai/ha, scale 0 to 100, 0 no effect, 100 complete control
[23] = Preemergence, 125 g ai/ha, 0 to 100 scale
[24] = Postemergence, 31 g ai/ha, scale 0 to 100 (0 no effect, 100 complete control)
[25] = Postemergence, 250 g ai/ha, scale 0 to 100
[26] = 31 g ai/ha, scale of 0 to 100 where 0 is no effect and 100 is complete control
[27] = 125 g ai/ha, scale 0 to 100, 0 is no effect, 100 is complete control
[28] = 31 g ai/ha, postemergence, scale 0 to 100, 0 is no effect, 100 is complete control

## Cc1cc(F)ccc1-n1c(-c2ccccc2)ncc(C(=O)C2=C(O)CCCC2=O)c1=O [Compound 48]
[1]; [13]
  Pigweed plant response rating: 100
[1]; [14]
  Plant response rating, Pigweed: 100
[1]; [15]
  Plant response rating, Pigweed: 90
[1]; [16]
  Plant response rating, Pigweed: 100
[2]; [13]
  Morningglory plant response rating: 90
[2]; [14]
  Plant response rating, Morningglory: 100
[2]; [15]
  Plant response rating, Morningglory: 40
[2]; [16]
  Plant response rating, Morningglory: 80
[3]
  Plant response rating, Flood, Sedge, Umbrella: 75
[3]; [17]
  Plant response rating, Sedge, Umbrella: 40
[4]
  Plant response rating, Flood, Ducksalad: 85
[4]; [17]
  Plant response rating, Ducksalad: 0
[5]
  Plant response rating, Flood, Barnyardgrass: 35
[5]; [17]
  Plant response rating, Barnyardgrass: 0
[6]
  Plant response rating, Flood, Rice: 65
[6]; [17]
  Plant response rating, Rice: 0
[7]; [18]
  Plant response rating, Morningglory: 100
[7]; [19]
  Plant response rating, Morningglory: 70
[7]; [20]
  Plant response rating, Morningglory: 80
[7]; [21]
  Plant response rating, Morningglory: 0
[7]; [22]
  Plant response rating, Morningglory: 100
[7]; [23]
  Morningglory plant response rating: 100
[8]; [18]
  Plant response rating, Foxtail, Giant: 98
[8]; [24]
  Plant response rating, Foxtail, Giant: 85
[8]; [19]
  Plant response rating, Foxtail, Giant: 85
[8]; [20]
  Plant response rating, Foxtail, Giant: 95
[8]; [25]
  Foxtail, Giant plant response rating: 98
[8]; [21]
  Plant response rating, Foxtail, Giant: 20
[8]; [22]
  Plant response rating, Foxtail, Giant: 75
[8]; [23]
  Foxtail, Giant plant response rating: 85
[9]; [18]
  Plant response rating, Goosegrass: 100
[9]; [19]
  Plant response rating, Goosegrass: 85
[9]; [20]
  Plant response rating, Goosegrass: 95
[9]; [25]
  Goosegrass plant response rating: 98
[9]; [21]
  Plant response rating, Goosegrass: 98
[9]; [23]
  Goosegrass plant response rating: 100
[10]; [18]
  Plant response rating, Johnsongrass: 98
[10]; [19]
  Plant response rating, Johnsongrass: 80
[10]; [20]
  Plant response rating, Johnsongrass: 80
[10]; [25]
  Johnsongrass plant response rating: 95
[10]; [21]
  Plant response rating, Johnsongrass: 20
[10]; [22]
  Plant response rating, Johnsongrass: 45
[10]; [23]
  Johnsongrass plant response rating: 90
[11]; [18]
  Plant response rating, Cupgrass, Woolly: 95
[11]; [24]
  Plant response rating, Cupgrass, Woolly: 80
[11]; [19]
  Plant response rating, Cupgrass, Woolly: 80
[11]; [20]
  Plant response rating, Cupgrass, Woolly: 90
[11]; [25]
  Cupgrass, Woolly plant response rating: 95
[11]; [21]
  Plant response rating, Cupgrass, Woolly: 10
[11]; [22]
  Plant response rating, Cupgrass, Woolly: 10
[11]; [23]
  Cupgrass, Woolly plant response rating: 75
[12]; [18]
  Plant response rating, Wheat: 0
[12]; [19]
  Plant response rating, Wheat: 0
[12]; [20]
  Plant response rating, Wheat: 10
[12]; [21]
  Plant response rating, Wheat: 0
[12]; [23]
  Wheat plant response rating: 0

## CCn1c(-c2ccccc2)ncc(C(=O)C2=C(O)CCCC2=O)c1=O [Compound 49]
[1]; [13]
  Pigweed plant response rating: 100
[1]; [14]
  Plant response rating, Pigweed: 100
[1]; [15]
  Plant response rating, Pigweed: 80
[1]; [16]
  Plant response rating, Pigweed: 90
[2]; [13]
  Morningglory plant response rating: 100
[2]; [14]
  Plant response rating, Morningglory: 100
[2]; [15]
  Plant response rating, Morningglory: 30
[2]; [16]
  Plant response rating, Morningglory: 80
[3]
  Plant response rating, Flood, Sedge, Umbrella: 85
[3]; [26]
  Plant response rating, Sedge, Umbrella: 0
[3]; [17]
  Plant response rating, Sedge, Umbrella: 0
[3]; [27]
  Plant response rating, Sedge, Umbrella: 0
[4]
  Plant response rating, Flood, Ducksalad: 70
[4]; [26]
  Plant response rating, Ducksalad: 0
[4]; [17]
  Plant response rating, Ducksalad: 0
[4]; [27]
  Plant response rating, Ducksalad: 40
[5]
  Plant response rating, Flood, Barnyardgrass: 0
[5]; [26]
  Plant response rating, Barnyardgrass: 0
[5]; [17]
  Plant response rating, Barnyardgrass: 0
[5]; [27]
  Plant response rating, Barnyardgrass: 0
[6]
  Plant response rating, Flood, Rice: 15
[6]; [26]
  Plant response rating, Rice: 0
[6]; [17]
  Plant response rating, Rice: 0
[6]; [27]
  Plant response rating, Rice: 10
[7]; [28]
  Plant response rating, Morningglory: 65
[7]; [18]
  Plant response rating, Morningglory: 85
[7]; [19]
  Plant response rating, Morningglory: 80
[7]; [20]
  Plant response rating, Morningglory: 80
[7]; [21]
  Plant response rating, Morningglory: 45
[7]; [22]
  Plant response rating, Morningglory: 80
[7]; [23]
  Morningglory plant response rating: 80
[8]; [28]
  Plant response rating, Foxtail, Giant: 45
[8]; [18]
  Plant response rating, Foxtail, Giant: 45
[8]; [19]
  Plant response rating, Foxtail, Giant: 60
[8]; [20]
  Plant response rating, Foxtail, Giant: 70
[8]; [25]
  Foxtail, Giant plant response rating: 75
[8]; [21]
  Plant response rating, Foxtail, Giant: 0
[8]; [22]
  Plant response rating, Foxtail, Giant: 0
[8]; [23]
  Foxtail, Giant plant response rating: 20
[9]; [28]
  Plant response rating, Goosegrass: 65
[9]; [18]
  Plant response rating, Goosegrass: 100
[9]; [19]
  Plant response rating, Goosegrass: 70
[9]; [20]
  Plant response rating, Goosegrass: 70
[9]; [25]
  Goosegrass plant response rating: 70
[9]; [21]
  Plant response rating, Goosegrass: 20
[9]; [23]
  Goosegrass plant response rating: 98
[10]; [28]
  Plant response rating, Johnsongrass: 0
[10]; [18]
  Plant response rating, Johnsongrass: 10
[10]; [19]
  Plant response rating, Johnsongrass: 0
[10]; [20]
  Plant response rating, Johnsongrass: 10
[10]; [25]
  Johnsongrass plant response rating: 10
[10]; [21]
  Plant response rating, Johnsongrass: 0
[10]; [22]
  Plant response rating, Johnsongrass: 0
[10]; [23]
  Johnsongrass plant response rating: 0
[11]; [28]
  Plant response rating, Cupgrass, Woolly: 50
[11]; [18]
  Plant response rating, Cupgrass, Woolly: 20
[11]; [19]
  Plant response rating, Cupgrass, Woolly: 50
[11]; [20]
  Plant response rating, Cupgrass, Woolly: 55
[11]; [25]
  Cupgrass, Woolly plant response rating: 55
[11]; [21]
  Plant response rating, Cupgrass, Woolly: 0
[11]; [22]
  Plant response rating, Cupgrass, Woolly: 0
[11]; [23]
  Cupgrass, Woolly plant response rating: 0
[12]; [28]
  Plant response rating, Wheat: 0
[12]; [18]
  Plant response rating, Wheat: 0
[12]; [19]
  Plant response rating, Wheat: 5
[12]; [20]
  Plant response rating, Wheat: 15
[12]; [21]
  Plant response rating, Wheat: 0
[12]; [23]
  Wheat plant response rating: 0
